Data reported in US9561231B2 (AbbVie Inc., priority 2012, dated 2017).

How the values were obtained:
[1] = biological target: T1, first (BD1: amino acids K57-E168) bromodomain of BRD4 (Homo sapiens, UniProt O60885); test: TR-FRET bromodomain binding assay, BRD4 BD1; conditions: TR-FRET assay protocol (A-G, compound concentration range); Ki calculated from IC50, probe Kd and probe concentration; read-out: TR-FRET Binding Ki: BRD4 (BDI_K57-E168)
T1 construct: His-tagged first (BD1: amino acids K57-E168)
Method in brief: (§1)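 Compounds were serially diluted in DMSO, diluted into pH 6.0 phosphate buffer with NaCl, EDTA, Triton X-100 and DTT, then combined with His-tagged bromodomain and an Alexa647-labeled BET-inhibitor probe. TR-FRET was read, percent inhibition fitted to give IC50, and Ki derived using probe Kd.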

[2] = biological target: T2, second (BD2: amino acids E352-E168) bromodomain of BRD4 (Homo sapiens, UniProt O60885); test: TR-FRET bromodomain binding assay, BRD4 BD2; conditions: TR-FRET assay protocol (A-G, compound concentration range); Ki calculated from IC50, probe Kd and probe concentration; read-out: TR-FRET Binding Ki: BRD4 (BDII_E352-M457)
T2 construct: protocol
Method in brief: as §1

Question: With Cn1nc(-c2ccccc2Oc2ccccc2)c(-c2ccc(C(=O)NCc3ccccc3)cc2)cc1=O [Example 182, N-benzyl-4-[1-methyl-6-oxo-3-(2-phenoxyphenyl)-1,6-dihydropyridazin-4-yl]benzamide] as the compound, how does the Ki [1] read?
Answer: 531 nM

Question: What about the Ki [2] of the same compound?
Answer: 174 nM

Question: Which Ki [1] does the source give for Cn1nc(-c2ccccc2Oc2ccccc2)c(-c2ccc(C(=O)N3CCCC3)cc2)cc1=O [Example 183, 2-methyl-6-(2-phenoxyphenyl)-5-[4-(pyrrolidin-1-ylcarbonyl)phenyl]pyridazin-3(2H)-one] here?
Answer: 256 nM

Question: What about the Ki [2] of the same compound?
Answer: 166 nM

Question: Which results are given for Cn1nc(-c2ccccc2Oc2ccccc2)c(-c2ccc(N3CCCCC3)nc2)cc1=O [Example 184, 2-methyl-6-(2-phenoxyphenyl)-5-[6-(piperidin-1-yl)pyridin-3-yl]pyridazin-3(2H)-one]?
Answer: Ki [1]: 2140 nM; Ki [2]: 1960 nM

Question: Which Ki [1] does the source give for Cn1nc(-c2ccccc2Oc2ccccc2)c(-c2ccc(C(=O)NC3CCCCC3)cc2)cc1=O [Example 185, N-cyclohexyl-4-[1-methyl-6-oxo-3-(2-phenoxyphenyl)-1,6-dihydropyridazin-4-yl]benzamide] here?
Answer: 832 nM

Question: And the Ki [2]?
Answer: 324 nM

Question: Which results are given for CN(C)CCNC(=O)c1cccc(-c2cc(=O)n(C)nc2-c2ccccc2Oc2ccccc2)c1 [Example 186, N-[2-(dimethylamino)ethyl]-3-[1-methyl-6-oxo-3-(2-phenoxyphenyl)-1,6-dihydropyridazin-4-yl]benzamide]?
Answer: Ki [1]: 1320 nM; Ki [2]: 854 nM

Question: Cn1nc(-c2ccccc2Oc2ccccc2)c(-c2ccc(CNc3ccccc3)cc2)cc1=O [Example 187, 2-methyl-6-(2-phenoxyphenyl)-5-{4-[(phenylamino)methyl]phenyl}pyridazin-3(2H)-one] was tested. Which Ki [1] did it give?
Answer: 4950 nM

Question: And the Ki [2]?
Answer: 2250 nM

Question: For CN1CCN(c2ncc(-c3cc(=O)n(C)nc3-c3ccccc3Oc3ccccc3)cn2)CC1 [Example 188, 2-methyl-5-[2-(4-methylpiperazin-1-yl)pyrimidin-5-yl]-6-(2-phenoxyphenyl)pyridazin-3(2H)-one], which Ki [1] is on record?
Answer: 670 nM

Question: And the Ki [2]?
Answer: 1130 nM

Question: COC(=O)Cc1ccc(-c2cc(=O)n(C)nc2-c2ccccc2Oc2ccccc2)cc1 [Example 189, methyl{4-[1-methyl-6-oxo-3-(2-phenoxyphenyl)-1,6-dihydropyridazin-4-yl]phenyl}acetate] was tested. Which Ki [1] did it give?
Answer: 3140 nM

Question: What about the Ki [2] of the same compound?
Answer: 1480 nM

Question: Which results are given for CCOc1cncc(-c2cc(=O)n(C)nc2-c2ccccc2Oc2ccccc2)c1 [Example 190, 5-(5-ethoxypyridin-3-yl)-2-methyl-6-(2-phenoxyphenyl)pyridazin-3(2H)-one]?
Answer: Ki [1]: 6560 nM; Ki [2]: 2420 nM

Question: For CN(C)c1ncc(-c2cc(=O)n(C)nc2-c2ccccc2Oc2ccccc2)cn1 [Example 192, 5-[2-(dimethylamino)pyrimidin-5-yl]-2-methyl-6-(2-phenoxyphenyl)pyridazin-3(2H)-one], which Ki [1] is on record?
Answer: 1040 nM

Question: What about the Ki [2] of the same compound?
Answer: 395 nM

Question: Which results are given for Cn1nc(-c2ccccc2Oc2ccccc2)c(-c2cccnc2)cc1=O [Example 195, 2-methyl-6-(2-phenoxyphenyl)-5-(pyridin-3-yl)pyridazin-3(2H)-one]?
Answer: Ki [1]: 664 nM; Ki [2]: 317 nM

Question: Which Ki [1] does the source give for Cc1ccc(-c2cc(=O)n(C)nc2-c2ccccc2Oc2ccccc2)cn1 [Example 196, 2-methyl-5-(6-methylpyridin-3-yl)-6-(2-phenoxyphenyl)pyridazin-3(2H)-one] here?
Answer: 1080 nM

Question: What about the Ki [2] of the same compound?
Answer: 670 nM

Question: How did the Ki [1] turn out when COc1cccc(-c2cc(=O)n(C)nc2-c2ccccc2Oc2ccccc2)c1 [Example 197, 5-(3-methoxyphenyl)-2-methyl-6-(2-phenoxyphenyl)pyridazin-3(2H)-one] was run?
Answer: 1060 nM

Question: What about the Ki [2] of the same compound?
Answer: 725 nM

Question: Which Ki [1] does the source give for COc1cc(-c2cc(=O)n(C)nc2-c2ccccc2Oc2ccccc2)ccc1F [Example 199, 5-(4-fluoro-3-methoxyphenyl)-2-methyl-6-(2-phenoxyphenyl)pyridazin-3(2H)-one] here?
Answer: > 13000 nM

Question: And the Ki [2]?
Answer: 5660 nM

Question: For Cn1nc(-c2ccccc2Oc2ccccc2)c(-c2ccnc(N)c2)cc1=O [Example 200, 5-(2-aminopyridin-4-yl)-2-methyl-6-(2-phenoxyphenyl)pyridazin-3(2H)-one], which Ki [1] is on record?
Answer: 344 nM

Question: And the Ki [2]?
Answer: 971 nM

Question: Which Ki [1] does the source give for CC(=O)c1cccc(-c2cc(=O)n(C)nc2-c2ccccc2Oc2ccccc2)c1 [Example 201, 5-(3-acetylphenyl)-2-methyl-6-(2-phenoxyphenyl)pyridazin-3(2H)-one] here?
Answer: 2410 nM

Question: And the Ki [2]?
Answer: 1710 nM

Question: Which Ki [1] does the source give for CCNC(=O)c1ccc(-c2cc(=O)n(C)nc2-c2ccccc2Oc2ccccc2)cc1 [Example 202, N-ethyl-4-[1-methyl-6-oxo-3-(2-phenoxyphenyl)-1,6-dihydropyridazin-4-yl]-benzamide] here?
Answer: 227 nM

Question: And the Ki [2]?
Answer: 251 nM

Question: Which Ki [1] does the source give for COc1ccc(-c2cc(=O)n(C)nc2-c2ccccc2Oc2ccccc2)cc1F [Example 203, 5-(3-fluoro-4-methoxyphenyl)-2-methyl-6-(2-phenoxyphenyl)pyridazin-3(2H)-one] here?
Answer: 3510 nM

Question: What about the Ki [2] of the same compound?
Answer: 1520 nM

Question: Cc1c(-c2cc(=O)n(C)nc2-c2ccccc2Oc2ccccc2)cnn1C [Example 204, 5-(1,5-dimethyl-1H-pyrazol-4-yl)-2-methyl-6-(2-phenoxyphenyl)pyridazin-3(2H)-one] was tested. Which Ki [1] did it give?
Answer: 1020 nM

Question: And the Ki [2]?
Answer: 1960 nM

Question: With Cc1cc(-c2cc(=O)n(C)nc2-c2ccccc2Oc2ccccc2)ccn1 [Example 205, 2-methyl-5-(2-methylpyridin-4-yl)-6-(2-phenoxyphenyl)pyridazin-3(2H)-one] as the compound, how does the Ki [1] read?
Answer: 2830 nM

Question: And the Ki [2]?
Answer: 2970 nM

Question: What does the source list for CC(C)Cn1cc(-c2cc(=O)n(C)nc2-c2ccccc2Oc2ccccc2)cn1 [Example 206, 2-methyl-5-[1-(2-methylpropyl)-1H-pyrazol-4-yl]-6-(2-phenoxyphenyl)pyridazin-3(2H)-one]?
Answer: Ki [1]: 412 nM; Ki [2]: 672 nM

Question: Cc1ccncc1-c1cc(=O)n(C)nc1-c1ccccc1Oc1ccccc1 [Example 207, 2-methyl-5-(4-methylpyridin-3-yl)-6-(2-phenoxyphenyl)pyridazin-3(2H)-one] was tested. Which Ki [1] did it give?
Answer: 7020 nM

Question: And the Ki [2]?
Answer: 11800 nM

Question: With Cn1nc(-c2ccccc2Oc2ccccc2)c(-c2ccc3c(ccn3C)c2)cc1=O [Example 208, 2-methyl-5-(1-methyl-1H-indol-5-yl)-6-(2-phenoxyphenyl)pyridazin-3(2H)-one] as the compound, how does the Ki [1] read?
Answer: 901 nM

Question: What about the Ki [2] of the same compound?
Answer: 1510 nM

Question: For CN(C)c1cccc(-c2cc(=O)n(C)nc2-c2ccccc2Oc2ccccc2)c1 [Example 209, 5-[3-(dimethylamino)phenyl]-2-methyl-6-(2-phenoxyphenyl)pyridazin-3(2H)-one], which Ki [1] is on record?
Answer: > 5490 nM

Question: And the Ki [2]?
Answer: 8480 nM

Question: COc1ccc(F)c(-c2cc(=O)n(C)nc2-c2ccccc2Oc2ccccc2)c1 [Example 210, 5-(2-fluoro-5-methoxyphenyl)-2-methyl-6-(2-phenoxyphenyl)pyridazin-3(2H)-one] was tested. Which Ki [1] did it give?
Answer: 9870 nM

Question: And the Ki [2]?
Answer: 15200 nM

Question: Which results are given for Cc1ccc(-c2cc(=O)n(C)nc2-c2ccccc2Oc2ccccc2)o1 [Example 211, 2-methyl-5-(5-methylfuran-2-yl)-6-(2-phenoxyphenyl)pyridazin-3(2H)-one]?
Answer: Ki [1]: 2150 nM; Ki [2]: 1520 nM

Question: CCn1cc(-c2cc(=O)n(C)nc2-c2ccccc2Oc2ccccc2)cn1 [Example 212, 5-(1-ethyl-1H-pyrazol-4-yl)-2-methyl-6-(2-phenoxyphenyl)pyridazin-3(2H)-one] was tested. Which Ki [1] did it give?
Answer: 89.8 nM

Question: And the Ki [2]?
Answer: 117 nM

Question: For COc1cnccc1-c1cc(=O)n(C)nc1-c1ccccc1Oc1ccccc1 [Example 213, 5-(3-methoxypyridin-4-yl)-2-methyl-6-(2-phenoxyphenyl)pyridazin-3(2H)-one], which Ki [1] is on record?
Answer: > 13000 nM

Question: What about the Ki [2] of the same compound?
Answer: 15200 nM

Question: Which results are given for Cn1nc(-c2ccccc2Oc2ccccc2)c(-c2cc3ccccc3n2C)cc1=O [Example 214, 2-methyl-5-(1-methyl-1H-indol-2-yl)-6-(2-phenoxyphenyl)pyridazin-3(2H)-one]?
Answer: Ki [1]: > 13000 nM; Ki [2]: 10400 nM

Question: What does the source list for CN(C)c1cncc(-c2cc(=O)n(C)nc2-c2ccccc2Oc2ccccc2)c1 [Example 216, 5-[5-(dimethylamino)pyridin-3-yl]-2-methyl-6-(2-phenoxyphenyl)pyridazin-3(2H)-one]?
Answer: Ki [1]: 719 nM; Ki [2]: 462 nM

Question: Which Ki [1] does the source give for Cn1nc(-c2ccccc2Cc2ccccc2)ccc1=O [Example 222, 6-(2-benzylphenyl)-2-methylpyridazin-3(2H)-one] here?
Answer: 6840 nM

Question: What about the Ki [2] of the same compound?
Answer: 1360 nM

Question: Cn1cc(-c2cc(Nc3ccccn3)ccc2Oc2ccccc2)ccc1=O [Example 254, 1-methyl-5-[2-phenoxy-5-(pyridin-2-ylamino)phenyl]pyridin-2(1H)-one] was tested. Which Ki [1] did it give?
Answer: 324 nM

Question: And the Ki [2]?
Answer: 3270 nM

Question: How did the Ki [1] turn out when Cn1cc(-c2cc(NS(C)(=O)=O)ccc2Oc2ccc(F)cc2F)c(Cl)cc1=O [Example 269, N-[3-(4-chloro-1-methyl-6-oxo-1,6-dihydropyridin-3-yl)-4-(2,4-difluorophenoxy)phenyl]methanesulfonamide] was run?
Answer: 246 nM

Question: What about the Ki [2] of the same compound?
Answer: 204 nM

Question: CNC(=O)c1cc(=O)n(C)cc1-c1cc(NS(C)(=O)=O)ccc1Oc1ccc(F)cc1F [Example 276, 5-{2-(2,4-difluorophenoxy)-5-[(methylsulfonyl)amino]phenyl}-N,1-dimethyl-2-oxo-1,2-dihydropyridine-4-carboxamide] was tested. Which Ki [1] did it give?
Answer: 916 nM

Question: And the Ki [2]?
Answer: 570 nM

Question: For Cn1cc(-c2cc(NS(C)(=O)=O)ccc2Oc2ccc(F)cc2F)cc(Cl)c1=O [Example 282, N-[3-(5-chloro-1-methyl-6-oxo-1,6-dihydropyridin-3-yl)-4-(2,4-difluorophenoxy)phenyl]methanesulfonamide], which Ki [1] is on record?
Answer: 20.4 nM

Question: What about the Ki [2] of the same compound?
Answer: 99.7 nM

Question: How did the Ki [1] turn out when CCS(=O)(=O)Nc1ccc(Oc2ccc(F)cc2F)c(-c2cn(C)c(=O)cc2OCCN(C)C)c1 [Example 288, N-(4-(2,4-difluorophenoxy)-3-(4-(2-(dimethylamino)ethoxy)-1-methyl-6-oxo-1,6-dihydropyridin-3-yl)phenyl)ethanesulfonamide] was run?
Answer: 190 nM

Question: What about the Ki [2] of the same compound?
Answer: 551 nM
